“And” between values parts separate entries of the source, which are not always exact repeats. Equal values may be shown once.

This is an account of results in publication PMC9046089, “CCNE1 amplification is synthetic lethal with PKMYT1 kinase inhibition” (Nature, 2022).

Experiment [1] has as its system cyclin B, CDK1, CDK1-pT14. Description: Immunoblot of cyclin B, CDK1 and CDK1-pT14 after HU or gemcitabine. Particulars: for Quantitation of CDK1 (immunoblot of whole cell lysates) / Quantitation of CDK1-pT14 relative to total CDK1 (immunoblot of whole cell lysates) / Quantitation of cyclin B (immunoblot of whole cell lysates): FT282-hTERT-p53-R175H, DMSO = 1; for levels of cyclin B or CDK1: immunoblot and QIBC; for CDK1 pT14 levels: immunoblot, controlling for total CDK1.

The next experiment concerns HCC1569 cells. Kind of experiment: Cell proliferation assay (Incucyte growth inhibition, synergy). Format: cell-based. Conditions: for % growth relative to untreated: RP-6306 0. The text has this: (§1) Per cent confluence relative to a non-treated control was used to evaluate growth inhibition induced by test compounds. […] (https://synergyfinder.fimm.fi).
A further experiment has as its system cytoplasmic cyclin B. Kind of experiment: QIBC of cytoplasmic cyclin B intensity in EdU+ cells after HU or gemcitabine. Format: cell-based. Conditions: 48 h. On the procedure: Before collection, cells were pulsed with 20 μM EdU (5-ethynyl-2-deoxyuridine, Life Technologies cat. no. A10044) for 30 min and then washed with PBS and fixed with 4% paraformaldehyde (PFA) in PBS for 15 min at room temperature. Cells were then rinsed with PBS and permeabilized using 0.3% Triton X-100/PBS for 30 min. For chromatin-bound MCM measurements, cells were pre-extracted for 15 min on ice with CSK buffer (300 mM sucrose, 100 mM NaCl, 3 mM MgCl2, 10 mM PIPES pH 7.0, 0.5% v/v Triton-X 100) before PFA fixation. […] Fresh blocking buffer containing primary antibodies was added for 2 h. Cells were rinsed three times with PBS and then blocking buffer, with secondary antibodies and 0.4 μg ml^−1 DAPI (4,6-diamidino-2-phenylindole, Sigma-Aldrich, cat. no. D9542) was added for 1 h. After rinsing with PBS, immunocomplexes were fixed again using 4% PFA/PBS for 5 min.
Cells were fixed, permeabilized and stained in the same manner as immunofluorescence described above. Wells were filled with 200 μl PBS and images were acquired at the Network Biology Collaborative Centre (LTRI) on an InCell Analyzer 6000 automated microscope (GE Life Sciences) with a 20× objective. Image analysis was performed using Cellprofiler 3.1.9 and RStudio v1.2.5019[57] (Supplementary Fig. 4).

A further experiment concerns SNU8 cells. Kind of experiment: Cell proliferation assay (Incucyte growth inhibition). The experiment is classed as cell-based. Conditions: three replicates.
Description: as §1

Another experiment concerns COV362 cells. Described as above. The experiment is classed as cell-based. Conditions: growth inhibition, three replicates.
Description: as §1

Experiment [2] relates to RPE1-hTERT TP53-/- Cas9 parental cells. Described as above. Format: cell-based. Conditions: read-out: RP-6306 EC50 (mM) RPE1 WT, growth inhibition, three replicates.
Description: as §1

Another experiment concerns TOV112D cells. The description is as above. The experiment is classed as cell-based. Particulars: three replicates.
Description: as §1

In experiment [3] the test system is RPE1-hTERT TP53-/- Cas9 CCNE1-high cells. The experiment is described as above. Format: cell-based. Particulars: read-out: RP-6306 EC50 (mM) RPE1 CCNE1 (C2), growth inhibition, three replicates.
Description: as §1

For another experiment, the system named is DOTC24510 cells. Described as above. The experiment is classed as cell-based. Conditions: growth inhibition, three replicates.
Description: as §1

The next experiment deals with KYSE30 cells. The experiment is described as above. The experiment is classed as cell-based. Particulars: growth inhibition, three replicates.
Description: as §1

The next experiment concerns SUM149PT cells. Described as above. The experiment is classed as cell-based. Conditions: three replicates.
Description: as §1

The subject of a further experiment is OVCAR3 cells. Described as above. Format: cell-based. Particulars: growth inhibition, three replicates.
Description: as §1

Another experiment deals with NUGC3 cells. Described as above. Format: cell-based. Conditions: growth inhibition, three replicates.
Description: as §1

Another experiment deals with T1, human recombinant PKMYT1 (Homo sapiens, UniProt Q99640).
T1 construct: full-length human GST–PKMYT1 recombinant protein; GST (N); purchased Thermo Fisher Scientific A33387
T1 sequence (Q99640 1-499): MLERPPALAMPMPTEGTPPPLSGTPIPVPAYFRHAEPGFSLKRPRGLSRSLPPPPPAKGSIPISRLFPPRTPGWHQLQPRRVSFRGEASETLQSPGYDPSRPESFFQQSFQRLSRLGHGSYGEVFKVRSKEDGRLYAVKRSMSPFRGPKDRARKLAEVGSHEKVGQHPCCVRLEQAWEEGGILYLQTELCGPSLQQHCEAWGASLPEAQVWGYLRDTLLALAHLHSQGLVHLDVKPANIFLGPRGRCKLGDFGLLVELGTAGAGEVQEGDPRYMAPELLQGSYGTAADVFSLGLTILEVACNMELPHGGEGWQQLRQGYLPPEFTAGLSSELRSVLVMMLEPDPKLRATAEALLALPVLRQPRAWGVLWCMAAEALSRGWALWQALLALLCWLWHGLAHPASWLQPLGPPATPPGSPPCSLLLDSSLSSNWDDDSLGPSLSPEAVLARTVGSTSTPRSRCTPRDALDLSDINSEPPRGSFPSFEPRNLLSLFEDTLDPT
Kind of experiment: ADP-Glo kinase assay of PKMYT1 catalytic activity. The experiment is classed as biochemical.

Consider `Nc1ccn([C@@H]2O[C@H](CO)[C@@H](O)C2(F)F)c(=O)n1` [gemcitabine], for which, in experiment [1] (5 nM Gemcitabine), the “Quantitation of CDK1 (immunoblot of whole cell lysates)” value was 1.203 and 0.9791 and 1.593. In experiment [1] (5 nM Gemcitabine), the “Quantitation of CDK1-pT14 relative to total CDK1 (immunoblot of whole cell lysates)” value is 1.528 and 2.085 and 1.888. In addition, the “Quantitation of cyclin B (immunoblot of whole cell lysates)” value in [1] (5 nM Gemcitabine) is 1.877 and 1.201 and 1.262. In addition, the “levels of cyclin B or CDK1” value in experiment [1] was “did not detect increased levels”. Further, the “CDK1 pT14 levels” value in experiment [1] is “increased”. Further, the “growth relative to DMSO control” value in the experiment on HCC1569 cells (0.556 nM gemcitabine, DMSO = 100) is 76.36 and 70.43. Further, the “% growth relative to untreated” value in the experiment on HCC1569 cells (gemcitabine 0.0524288 nM) turned out to be 96.4701%; with HCC1569 cells (gemcitabine 0.131072 nM), 85.3567%; in the experiment on HCC1569 cells (gemcitabine 0.32768 nM), 85.2938%; with HCC1569 cells (gemcitabine 0.8192 nM), 45.6374%; in the experiment on HCC1569 cells (gemcitabine 2.048 nM), 16.2355%; in the experiment with HCC1569 cells (gemcitabine 5.12 nM), 11.6895%. Moreover, the “% growth relative to untreated” value was 9.354% with HCC1569 cells (gemcitabine 12.8 nM), 7.468% in the experiment with HCC1569 cells (gemcitabine 32 nM) and 5.95% in the experiment with HCC1569 cells (gemcitabine 80 nM). For the same compound, the “fold-change of cytoplasmic cyclin B intensity in EdU+ cells” value (from here on “fold-change”) in the experiment with cytoplasmic cyclin B (FT282-hTERT-p53-R175H CCNE1 high (C3), gemcitabine 5 nM) is 1.161 and 1.404 and 1.38; in the experiment on cytoplasmic cyclin B (FT282-hTERT-p53-R175H WT, gemcitabine 5 nM), 1.346 and 1.467 and 1.135.
With `NC(=O)NO` [hydroxyurea], the “Quantitation of CDK1 (immunoblot of whole cell lysates)” value in [1] (400 µM HU, listed as HU) was 1.2117 and 1.452 and 2.133. Besides, the “Quantitation of CDK1-pT14 relative to total CDK1 (immunoblot of whole cell lysates)” value in experiment [1] (400 µM HU, listed as HU) was 1.45 and 1.634 and 1.7444. Moreover, the “Quantitation of cyclin B (immunoblot of whole cell lysates)” value in experiment [1] (400 µM HU, listed as HU) is 1.625 and 1.428 and 1.053. For the same compound, the “levels of cyclin B or CDK1” value in experiment [1] is recorded as “did not detect increased levels”. The “CDK1 pT14 levels” value in experiment [1] is “increased”. Also, the “fold-change” value in the experiment on cytoplasmic cyclin B (FT282-hTERT-p53-R175H CCNE1 high (C3), HU 50 mM (so in the source), listed as HU) was 0.9979 and 0.9823 and 1.013; in the experiment with cytoplasmic cyclin B (FT282-hTERT-p53-R175H CCNE1 high (C3), HU 100 mM (so in the source), listed as HU), 1.038 and 1.0461 and 1.056; with cytoplasmic cyclin B (FT282-hTERT-p53-R175H CCNE1 high (C3), HU 200 mM (so in the source), listed as HU), 1.095 and 1.0628 and 1.094; in the experiment with cytoplasmic cyclin B (FT282-hTERT-p53-R175H CCNE1 high (C3), HU 400 mM (so in the source), listed as HU), 1.408 and 1.403 and 1.354; in the experiment with cytoplasmic cyclin B (FT282-hTERT-p53-R175H WT, HU 50 mM (so in the source), listed as HU) it was 1.011 and 1.029 and 1.0186; with cytoplasmic cyclin B (FT282-hTERT-p53-R175H WT, HU 100 mM (so in the source), listed as HU) it was 1.025 and 1.031 and 1.053. In addition, the “fold-change” value is 1.0835 and 1.059 and 1.12 in the experiment with cytoplasmic cyclin B (FT282-hTERT-p53-R175H WT, HU 200 mM (so in the source), listed as HU); 1.261 and 1.177 and 1.385 in the experiment on cytoplasmic cyclin B (FT282-hTERT-p53-R175H WT, HU 400 mM (so in the source), listed as HU).
On to `C[C@@]1(O)CCC[C@H]1n1c(=O)c(C(F)F)cc2cnc(NC3CCN(S(C)(=O)=O)CC3)nc21` [PF-06873600], for which the 50% effective concentration (EC50) was 21 nM and 50 nM and 43 nM in the experiment with SNU8 cells; 94 nM and 93 nM in the experiment with COV362 cells; 98 nM and 79 nM and 106 nM in experiment [2]; 43 nM and 47 nM and 42 nM with TOV112D cells; 0.000125 mM in experiment [3]; 56 nM and 41 nM and 28 nM with DOTC24510 cells. Moreover, the EC50 in the experiment with KYSE30 cells is 32 nM and 22 nM and 29 nM; in the experiment on SUM149PT cells, 75 nM and 85 nM and 80 nM; with OVCAR3 cells it was 46 nM and 37 nM and 35 nM; with NUGC3 cells, 28 nM and 25 nM and 22 nM; in the experiment with HCC1569 cells (growth inhibition, three replicates), 37 nM and 41 nM and 40 nM.
On to `Cc1cnc2c(c1)c(C(N)=O)c(N)n2-c1c(C)cccc1C` [RP-6421], for which the “effect on PKMYT1 catalytic activity” value on human recombinant PKMYT1 (ADP-Glo dose-response) was “no effect”. The “PKMYT1 catalytic activity, ADP-Glo signal” value on human recombinant PKMYT1 (c0 (log10 concentration, head mM) 1) is on record as 13700; at human recombinant PKMYT1 (c0 (log10 concentration, head mM) -0.57777) it was 15400; on human recombinant PKMYT1 (c0 (log10 concentration, head mM) -2.18442), 16550; at human recombinant PKMYT1 (c0 (log10 concentration, head mM) -3.8365) it was 15000; at human recombinant PKMYT1 (c0 (log10 concentration, head mM) -5.64386) it was 14750; at human recombinant PKMYT1 (c0 (log10 concentration, head mM) -6.93016), 14350. Moreover, the “PKMYT1 catalytic activity, ADP-Glo signal” value at human recombinant PKMYT1 (c0 (log10 concentration, head mM) -8.53282) is reported as 14150; at human recombinant PKMYT1 (c0 (log10 concentration, head mM) -10.0955), 14900; on human recombinant PKMYT1 (c0 (log10 concentration, head mM) -11.6789), 15800; on human recombinant PKMYT1 (c0 (log10 concentration, head mM) -13.2591) it was 15500.
